Assays:
Format in all cases: physicochemical
Solubility of DX = assay: Solubility of DX
Experimental: For various drug loading methods, the mass of drug released at various time increments was divided by the total drug released at long time and plotted as a function of time. […] A DX-ethanol solution of equivalent concentration as the DX-PBS, 0.08 mg/ml as that of DX-PBS solution was used to allow direct comparison of the two loading modes, although a saturated DX in ethanol is about 1 mg/ml. […] For these lenses, there is not much difference in the total release amount of DX from the lenses soaked in DX-PBS solution for two different soaking times, but slower DX release is observed from lenses that were soaked for 7 days than that for 24 hours. […] For total release amount of DX, PureVision™ and ACUVUE® OASYS™ lenses release relatively smaller amounts (about 28 μg and 35 μg, respectively) compared to the other three lenses (about 38-41 μg). There is no correlation between amount of drugs released and the water content, which is likely because the hydrophobic drugs are expected to partition in the silicone rich phases, and so the partition coefficients in the gels will be mainly influenced by the silicone composition of the lenses. All the lenses soaked in DX-ethanol solution release substantially low amount of DX (2-8 μg). […]

[1] = Diffusivity ratio from slope of % release versus square root of time; details: pure lenses
Source text: FIG. 31 plots % drugs release by Vitamin E loaded lenses as a function of the square root of time, for DX, timolol, fluzonazole and DXP. The lines of FIG. 31 are best fit straight lines over short time release data having R^2 larger than 0.98. […] The straight lines can be expressed by the equation:
[formula] where Mt is the mass of drug released at time t, M∞ the mass of drug release as time approaches infinity and for perfect sink condition M∞=M0 (initial drug loading). Therefore, from the slope of the straight line in FIG. 31, diffusivities of drug in the Vitamin E loaded lens can be determined if the mean lens thickness is known. The slope for DX, timolol, fluzonazole and DXP release is plotted versus Vitamin E loading in FIG. 32A-D. The slope decreases as Vitamin E loading increases for all lenses for all drugs release, which means (√{square root over (D)}/h) decreases. […] The h also increases as Vitamin E loading increases and lens expands symmetrically for all expansion axes (isotropic expansion) as described above. The increase of h might be 6.8% for hydrated O2OPTIX lens with 34% Vitamin E loading from FIG. 5B. Consequently, √{square root over (D)} is 39.5% of that of pure lens, i.e., D of DX in the 34% Vitamin E loaded O2OPTIX lens is 15% of that of the vitamin free (pure) lens. […]

[2] = DX uptake, release and partition coefficient, Vitamin E loaded lenses; details: release from Vitamin E loaded lenses
Experimental: Drug containing Vitamin E loaded lenses were prepared by directly adding drug to a Vitamin E-ethanol solution before soaking the pure lens in the solution, or by soaking a Vitamin E loaded lens in a drug-PBS solution. Drug containing Vitamin E-ethanol solutions were prepared by dissolving the drug in 3 ml of a Vitamin E-ethanol solution and then pure lens were soaked in this drug/Vitamin E-ethanol for 24 hours. The drug containing Vitamin E-ethanol lenses were taken from the solution blotted with wipes and dried overnight before subsequent release experiments.
For PureVision™ lens loaded with Vitamin E, only three different Vitamin E loadings were examined since the effect of Vitamin E loading on drug transport is minimal compared to other lenses. The insets in FIG. 21 show plots for drug release for the initial hours. Vitamin E was loaded in the lens, the lens were dried and DX was loaded in the Vitamin E loaded lens by soaking the lens in the DX-PBS solutions. […] DX loading time is relatively long for ACUVUE® OASYS™ lenses and relatively short for PureVision™ lenses relative to that of NIGHT&DAY™ and O2OPTIX lenses for similar Vitamin E loadings regardless of the level of Vitamin E loading.
For loading, an experimentally determined partition coefficient of drug in the Vitamin E loaded lens (K) is defined as: […]

C[C@@H]1C[C@H]2[C@@H]3CCC4=CC(=O)C=C[C@]4(C)[C@@]3(F)[C@@H](O)C[C@]2(C)[C@@]1(O)C(=O)CO [DX, dexamethasone]
concentration of nearly saturated DX-PBS solution (Solubility of DX; PBS, room temperature): ~80 µg/mL | saturated DX in ethanol (Solubility of DX; ethanol): about 1 mg/ml

CC(C)(C)NC[C@H](O)COc1nsnc1N1CCOCC1 [timolol]
D0 of timolol relative to D0 of DX [1]: about 3 factor

Vitamin E
Vitamin E in the release medium, PBS [2]: not detected

From patent publication US8404265B2, “Contact lenses for extended release of bioactive agents containing diffusion attenuators” (University of Florida Research Foundation, Inc., priority 2008, dated 2013)
